Holding throughout (type): cell-based
Assay [1] deals with Porphyromonas gingivalis ATCC 33277. The assay is described as follows: Growth inhibition assay, P. gingivalis (colony counts normalized to pH-matched Schaedler's broth). The protocol: Solobacterium moorei DSM 22971 and Porphyromonas gingivalis ATCC 33277 were grown in Schaedler's broth (Himedia) or Brucella blood agar with hemin and vitamin K (Hardy Diagnostics) under anaerobic conditions at 37° C. Anaerobic conditions were maintained using the Anaerogen atmosphere generation system (Oxoid). Streptococcus mutans UA159 were grown in Brain Heart Infusion (BHI; Hardy Diagnostics) under 5% CO2 at 37° C. Various concentrations of xylitol (Acros Organics), erythritol (Acros Organics) and/or polyphenon 60 (Sigma) were dissolved in Schaedler's broth or BHI broth. […] The mixtures were pH adjusted using either hydrochloric acid or sodium hydroxide to a final pH of 6.5±0.1, 7.5±0.1 or 8.5±0.1. All test products were filter-sterilized after pH adjustment. […] After 48 h of incubation, various dilutions of the cells were spotted into Brucella blood agar with hem in and vitamin K, and incubated for 48 h for S. moorei, and for 72 h for P. gingivalis. Cell counts were normalized against growth in Schaedler's broth adjusted to their respective testing pH. […] The percent inhibition was measured by normalizing the results against P. gingivalis grown in media with the corresponding pH adjustment. […] The percent inhibition was measured by normalizing the results against P. gingivalis grown in media with the corresponding pH adjustment.

In assay [2] the test system is Solobacterium moorei DSM 22971. The assay can be described thus: Growth inhibition assay, S. moorei (colony counts normalized to pH-matched Schaedler's broth). The protocol: Solobacterium moorei DSM 22971 and Porphyromonas gingivalis ATCC 33277 were grown in Schaedler's broth (Himedia) or Brucella blood agar with hemin and vitamin K (Hardy Diagnostics) under anaerobic conditions at 37° C. Anaerobic conditions were maintained using the Anaerogen atmosphere generation system (Oxoid). Streptococcus mutans UA159 were grown in Brain Heart Infusion (BHI; Hardy Diagnostics) under 5% CO2 at 37° C. Various concentrations of xylitol (Acros Organics), erythritol (Acros Organics) and/or polyphenon 60 (Sigma) were dissolved in Schaedler's broth or BHI broth. […] The mixtures were pH adjusted using either hydrochloric acid or sodium hydroxide to a final pH of 6.5±0.1, 7.5±0.1 or 8.5±0.1. All test products were filter-sterilized after pH adjustment. […] After 48 h of incubation, various dilutions of the cells were spotted into Brucella blood agar with hem in and vitamin K, and incubated for 48 h for S. moorei, and for 72 h for P. gingivalis. Cell counts were normalized against growth in Schaedler's broth adjusted to their respective testing pH. […] The percent inhibition was measured by normalizing the results against S. moorei grown in media with the corresponding pH adjustment. […] The percent survival was measured by normalizing the results against S. moorei grown in media with the corresponding pH adjustment. […] The percent inhibition was measured by normalizing the results against S. moorei grown in media with the corresponding pH adjustment. An upper limit of 0.1 mg/mL polyphenon 60 was used in order to be able to assess the pH effects.

Assay [3] concerns Streptococcus mutans UA159. The assay is described as follows: Growth inhibition assay, S. mutans (colony counts normalized to pH-matched BHI). The following applies: 1% (w/v) or 10% (w/v) sugar alcohol alone, pH 6.5, 7.5 or 8.5.
The mark [4] stands for this setting: 10% sugar alcohol alone, pH 6.5.
[5] abbreviates: 10% sugar alcohol alone, pH 7.5.
[6] abbreviates: 10% sugar alcohol alone, pH 8.5.

With `OC[C@@H](O)[C@@H](O)CO` [erythritol], the “Survival of P. gingivalis” value in assay [1] (1% sugar alcohol alone, pH 6.5) is on record as 92.1%; in assay [1] (1% sugar alcohol alone, pH 7.5), 75.4%; in assay [1] (setting [4]), 41.1%; in assay [1] (setting [5]), 19.9%; in assay [1] (setting [6]), 13.6%. Moreover, the S. moorei survival in assay [2] (setting [4]) amounted to 140.4%; in assay [2] (setting [5]) it was 156.9%; in assay [2] (setting [6]) it was 162.0%. For the same compound, in assay [2] (on its own at varying concentrations, any pH), the “inhibition of S. moorei growth” value is reported as “did not inhibit”. Besides, the “inhibitory activity on growth of S. mutans” value in assay [3] is “inhibit growth”.
In the case of `OC[C@@H](O)[C@H](O)[C@@H](O)CO` [xylitol], the “Survival of P. gingivalis” value amounted to 69.8% in assay [1] (1% sugar alcohol alone, pH 6.5); 63.2% in assay [1] (1% sugar alcohol alone, pH 7.5); 60.0% in assay [1] (1% sugar alcohol alone, pH 8.5); 14.3% in assay [1] (setting [4]); 8.9% in assay [1] (setting [5]); 7.4% in assay [1] (setting [6]). Moreover, the S. moorei survival came to 52.0% in assay [2] (1% sugar alcohol alone, pH 6.5); 53.3% in assay [2] (1% sugar alcohol alone, pH 7.5); 17.3% in assay [2] (1% sugar alcohol alone, pH 8.5); 52.6% in assay [2] (setting [4]); 53.6% in assay [2] (setting [5]); 26.8% in assay [2] (setting [6]). In assay [3], the “inhibitory activity on growth of S. mutans” value is “had inhibitory activity”.

The values are drawn from patent publication US11382850B2, “Compositions and methods for inhibiting growth of caries-, gingivitis- and halitosis-causing bacteria” (DoseBiome Inc., priority 2019, dated 2022).
